Results: ChEMBL document CHEMBL4311994, “New 2,6-diaminopyridines containing a sterically hindered benzylphosphonate moiety in the aromatic core as potential antioxidant and anti-cancer drugs” (Eur J Med Chem, 2019)
Active and inactive are the calls of the source. The rule behind the calls is not given here.

Key:
[1] = Antioxidant activity assessed as ABAP free radical scavenging activity by measuring decrease in chemiluminescence intensity at 0.25 to 1 mM by luminescence based assay; type: functional
Staphylococcus aureus = experiment: Antimicrobial activity against Staphylococcus aureus ATCC 209P by serial dilution method; type: functional
Bacillus cereus = experiment: Antimicrobial activity against Bacillus cereus ATCC 8035 by serial dilution method; type: functional
Escherichia coli = experiment: Antimicrobial activity against Escherichia coli CDC F-50 by serial dilution method; type: functional
Pseudomonas aeruginosa = experiment: Antimicrobial activity against Pseudomonas aeruginosa ATCC 9027 by serial dilution method; type: functional
Aspergillus niger = experiment: Antimicrobial activity against Aspergillus niger BKMF 1119 by serial dilution method; type: functional
[2] = tested on: Trichophyton mentagrophytes; experiment: Antimicrobial activity against Trichophyton mentagrophytes var. gypseum 1773 by serial dilution method; type: functional
Candida albicans = experiment: Antimicrobial activity against Candida albicans 855-653 by serial dilution method; type: functional
M-HeLa [3] = experiment: Antiproliferative activity against human M-HeLa cells by fluorescence based viable cell counting method; type: functional
MCF7 = experiment: Antiproliferative activity against human MCF7 cells by fluorescence based viable cell counting method; type: functional
[4] = Cytotoxicity against human Chang cells assessed as reduction in cell viability by fluorescence based viable cell counting method
A549 = experiment: Antiproliferative activity against human A549 cells by fluorescence based viable cell counting method; type: functional
PC-3 = experiment: Antiproliferative activity against human PC3 cells by fluorescence based viable cell counting method; type: functional
[5] = Hemolytic activity in human erythrocytes at 100.0 +/- 7.8 uM incubated for 1 hrs by photometric analysis relative to control; type: ADME, cell-based, Erythrocyte; conditions: read-out: Activity
[6] = Hemolytic activity in human erythrocytes at 50.0 +/- 4.3 uM incubated for 1 hrs by photometric analysis relative to control; type: ADME, cell-based, Erythrocyte; conditions: read-out: Activity
[7] = Hemolytic activity in human erythrocytes at 10.0 +/- 0.8 uM incubated for 1 hrs by photometric analysis relative to control; type: ADME, cell-based, Erythrocyte; conditions: read-out: Activity
M-HeLa [8] = experiment: Induction of apoptosis in human M-HeLa cells assessed as increase in caspase 9 expression at IC50 incubated for 24 hrs by luminescence based assay relative to control; type: functional
M-HeLa [9] = experiment: Induction of apoptosis in human M-HeLa cells assessed as increase in caspase 8 expression at IC50 incubated for 24 hrs by luminescence based assay; type: functional, cell-based
M-HeLa [10] = experiment: Induction of apoptosis in human M-HeLa cells assessed as increase in bcl2 expression at IC50 incubated for 24 hrs by luminescence based assay; type: functional, cell-based
M-HeLa [11] = experiment: Induction of apoptosis in human M-HeLa cells assessed as increase in p53 expression at IC50 incubated for 24 hrs by luminescence based assay; type: functional, cell-based
M-HeLa [12] = experiment: Induction of apoptosis in human M-HeLa cells assessed as increase in Akt expression at IC50 incubated for 24 hrs by luminescence based assay; type: functional, cell-based
M-HeLa [13] = experiment: Induction of apoptosis in human M-HeLa cells assessed as increase in JNK expression at IC50 incubated for 24 hrs by luminescence based assay; type: functional, cell-based
M-HeLa [14] = experiment: Induction of apoptosis in human M-HeLa cells assessed as effect on Bad expression at IC50 incubated for 24 hrs by luminescence based assay; type: functional, cell-based
[15] = Homo sapiens, M-HeLa, read-out: IC50
[16] = Homo sapiens, MCF7, read-out: IC50

| SMILES | Activity [1] | MIC (Staphylococcus aureus) | MIC (Bacillus cereus) | MIC (Escherichia coli) | MIC (Pseudomonas aeruginosa) | MIC (Aspergillus niger) | MIC [2] | MIC (Candida albicans) | IC50 (M-HeLa [3]; [15]) | IC50 (MCF7; [16]) | IC50 ([4]; Homo sapiens, read-out: IC50) | hemolysis at 1 h, 100 uM [5] | hemolysis at 1 h, 50 uM [6] | hemolysis at 1 h, 10 uM [7] | further results |
| --- | --- | --- | --- | --- | --- | --- | --- | --- | --- | --- | --- | --- | --- | --- | --- |
| COP(=O)(OC)C(c1cc(C(C)(C)C)c(O)c(C(C)(C)C)c1)c1ccc(N)nc1N (centres undefined) | Active | > 500 µM | > 500 µM | > 500 µM | > 500 µM | > 500 µM | > 500 µM | > 500 µM | 16.1 µM | 31 µM | > 100 µM | 0% | 0% | 0% | Activity (A549): inactive; Activity (PC-3): inactive |
| CC(C)(C)c1cc(C(c2ccc(N)cc2N)P(=O)(Oc2ccccc2)Oc2ccccc2)cc(C(C)(C)C)c1O (centres undefined) | Active | > 500 µM | > 500 µM | > 500 µM | > 500 µM | > 500 µM | > 500 µM | > 500 µM | – | – | – | 1.9% | 0.9% | 0% | IC50 (M-HeLa [3]; m-hela): Nd(Toxic); IC50 (MCF7; mcf7): Nd(Toxic); IC50 [4]: Nd(Toxic) |
| CCOP(=O)(OCC)C(c1cc(C(C)(C)C)c(O)c(C(C)(C)C)c1)c1ccc(N)cc1N (centres undefined) | Active | > 500 µM | > 500 µM | > 500 µM | > 500 µM | > 500 µM | > 500 µM | > 500 µM | 39 µM | 68.2 µM | 54.9 µM | 0% | 0% | 0% | – |
| CC/C(=C(\c1ccccc1)c1ccc(OCCN(C)C)cc1)c1ccccc1 [TAMOXIFEN] | – | – | – | – | – | – | – | – | – | – | 42.1 µM | – | – | – | – |
| CC(C)(C)c1cc(CP(=O)(Oc2ccccc2)Oc2ccccc2)cc(C(C)(C)C)c1O | Active | – | – | – | – | – | – | – | 15.6 µM | > 100 µM | 40 µM | – | – | – | – |
| CC(C)(C)C1=CC(=CP(=O)(Oc2ccccc2)Oc2ccccc2)C=C(C(C)(C)C)C1=O | Active | – | – | – | – | – | – | – | 14.3 µM | 38.4 µM | 17 µM | – | – | – | – |
| COP(=O)(OC)C(c1cc(C(C)(C)C)c(O)c(C(C)(C)C)c1)c1ccc(N)cc1N (centres undefined) | Active | > 500 µM | > 500 µM | > 500 µM | > 500 µM | > 500 µM | > 500 µM | > 500 µM | 45.3 µM | > 100 µM | > 100 µM | 0% | 0% | 0% | – |
| CC(C)OP(=O)(OC(C)C)C(c1cc(C(C)(C)C)c(O)c(C(C)(C)C)c1)c1ccc(N)nc1N (centres undefined) | Active | > 500 µM | > 500 µM | > 500 µM | > 500 µM | > 500 µM | > 500 µM | > 500 µM | 38 µM | 21.8 µM | > 100 µM | 0.3% | 0% | 0% | – |
| CC(C)OP(=O)(C=C1C=C(C(C)(C)C)C(=O)C(C(C)(C)C)=C1)OC(C)C | Active | – | – | – | – | – | – | – | 10.1 µM | 66 µM | 22.4 µM | – | – | – | – |
| CCOP(=O)(OCC)C(c1cc(C(C)(C)C)c(O)c(C(C)(C)C)c1)c1ccc(N)nc1N (centres undefined) | Active | > 500 µM | > 500 µM | > 500 µM | > 500 µM | > 500 µM | > 500 µM | > 500 µM | 17.1 µM | 34.2 µM | > 100 µM | 0% | 0% | 0% | – |
| CCCOP(=O)(OCCC)C(c1cc(C(C)(C)C)c(O)c(C(C)(C)C)c1)c1ccc(N)nc1N (centres undefined) | Active | – | – | – | – | – | – | – | 11.1 µM | 32.3 µM | 28.1 µM | – | – | – | – |
| CC(C)OP(=O)(Cc1cc(C(C)(C)C)c(O)c(C(C)(C)C)c1)OC(C)C | Active | – | – | – | – | – | – | – | 30 µM | 68.2 µM | 96 µM | – | – | – | – |
| COc1cccc2c1C(=O)c1c(O)c3c(c(O)c1C2=O)C[C@@](O)(C(=O)CO)C[C@@H]3O[C@H]1C[C@H](N)[C@H](O)[C@H](C)O1 [DOXORUBICIN] | – | – | – | – | – | – | – | – | 3 µM | – | 1.3 µM | – | – | – | – |
| CC(C)OP(=O)(OC(C)C)C(c1cc(C(C)(C)C)c(O)c(C(C)(C)C)c1)c1ccc(N)cc1N (centres undefined) | Active | > 500 µM | > 500 µM | > 500 µM | > 500 µM | > 500 µM | > 500 µM | > 500 µM | – | – | – | – | – | – | – |
| COP(=O)(Cc1cc(C(C)(C)C)c(O)c(C(C)(C)C)c1)OC | Active | – | – | – | – | – | – | – | 26 µM | > 100 µM | > 100 µM | 0% | 0% | 0% | – |
| CC(C)(C)c1cc(C(c2ccc(N)nc2N)P(=O)(Oc2ccccc2)Oc2ccccc2)cc(C(C)(C)C)c1O (centres undefined) | Active | > 500 µM | > 500 µM | > 500 µM | > 500 µM | > 500 µM | > 500 µM | > 500 µM | 7.4 µM | 16 µM | 52 µM | 1.9% | 0.5% | 0% | fold change (FC) (M-HeLa [8]): 2; Activity (M-HeLa [9]): inactive; Activity (M-HeLa [10]): Active; Activity (M-HeLa [11]): Active; Activity (M-HeLa [12]): Active; Activity (M-HeLa [13]): Active; Activity (M-HeLa [14]): inactive |
| COP(=O)(C=C1C=C(C(C)(C)C)C(=O)C(C(C)(C)C)=C1)OC | Active | – | – | – | – | – | – | – | 17.2 µM | > 100 µM | 24.1 µM | – | – | – | – |
